# Source: a melting point compilation (Tetko et al.; mined from patent text by program, amines drawn as free bases though some values may be those of a salt)
row,SMILES,melting point
1,O=C(O)c1cc(Br)cc([N+](=O)[O-])c1Br,225 to 229 °C
2,Cc1ccc(NC(=O)c2ccc(/C=C/C(=O)NO)cc2)cc1Nc1nc(-c2cccnc2)cs1,154 °C
3,O=C1CCC(c2ccccc2)(c2ccccc2)[C@@H]2CN(C(=O)Cc3c(F)cccc3F)C[C@H]12 (racemic),218 °C
4,c1cnc2cc3c(cc2n1)CCNCC3,114 to 116 °C
5,CCOc1nsnc1S(C)(=O)=O,94 to 95 °C
6,CCCCc1nc2c(N)nc3ccccc3c2n1CCCNC(=S)NCCC,144 to 146 °C
7,Cc1c(C)c(N2CCN(c3ccnc(Cl)n3)CC2)c(C)c2c1OC(C)(C)C2,192 to 193 °C
8,Cc1noc(CC(=O)O)n1,95 °C
9,FC(F)=C(F)Oc1ccc(C2(c3ccc(OC(F)=C(F)F)cc3)c3ccccc3-c3ccccc32)cc1,115 to 116 °C
10,CC(C)c1nn(-c2ccc(C(F)(F)F)nn2)cc1CCCO,113 to 114 °C
11,CC(C)CN(CC(O)C(Cc1ccccc1)NC(=O)C(CC(N)=O)NC(=O)c1ccc2ccccc2n1)C(=O)NC(C)(C)C (stereo not given),107 to 110 °C
12,CNc1nc(C)c(-c2nc3ccccc3c(=O)n2-c2ccccc2Cl)s1,214 to 215 °C
13,Cc1nc(CC(=O)O)no1,101 to 103 °C
14,O=C1CCC(N2Cc3c(OCc4ccc(CN5CCOCC5)c(Cl)c4)cccc3C2=O)C(=O)N1 (stereo not given),240 to 242 °C
15,Nc1ccc2ccc(Oc3cccnc3)nc2n1,178 °C
16,COC(OC)C(C)n1nnc2ccc(OCc3ccccc3)cc21 (stereo not given),101 to 103 °C
17,CNc1nc2ccc(-c3nc4cc(C)ccn4c3C)cc2s1,191 to 194 °C
18,c1cc(-n2cccn2)cc(-n2cnc3cc(-c4ccoc4)ccc32)c1,170 to 173 °C
19,NC(=O)CNC(=O)c1sc(Nc2ccccc2)c2c1CCc1cnoc1-2,213 to 214 °C
20,COc1cn(-c2ccc(N3CCC(F)(F)CC3)cc2F)nc(-c2ccnn2-c2ccccc2)c1=O,192 to 194 °C
21,C/C(O)=C(\C#N)C(=O)Sc1ccccc1,106 to 108 °C
22,O=C1N(Cc2csc(-c3ccc(C(F)(F)F)cc3)n2)c2ccccc2C12COc1cc3c(cc12)OCO3 (stereo not given),151 to 153 °C
23,OCc1cc(OC2CCCC2)c(OC(F)F)cn1,85 to 86 °C
24,O=P(O)(O)C(F)(F)P(=O)(O)O,87 to 90 °C
25,O=C(Cc1ccc(OCc2cccc(C(=O)O)c2)cc1)NC1(C(=O)O)Cc2ccc(-c3ccc(Cl)cc3)cc2C1 (stereo not given),220 to 222 °C

row,SMILES,melting point
1,COc1ccc(CNc2ncnc3c2ncn3C2OC(Cn3cc(C)nn3)C(O)C2O)cc1 (stereo not given),183 °C
2,CCCCCP(=O)(O)CCCN,232 to 236 °C
3,COc1cc(-c2nc(N)sc2SCC2CCCC2)c(OC)cc1C,88 to 89 °C
4,CC(C)(C)NC(=S)Nc1cc(Cl)cc(Cl)c1,164 to 165 °C
5,CC(C)NC(C)CCc1nc(Cn2cnc3c2c(=O)n(C)c(=O)n3C)no1 (stereo not given),55 to 61 °C
6,COc1cc(-c2nc(-n3cncn3)c3c(C)c(C#N)sc3n2)cc(OC)c1OC,236 to 240 °C
7,CC(C)(NC=O)c1ccc(I)cc1,121 to 125 °C
8,CCOc1cc(CCl)nc(C)n1,29 °C
9,O=P(O)(O)C(O)(CC(O)c1ccccc1)P(=O)(O)O (stereo not given),132 °C
10,O=C(CC1=C(n2nc(-c3c(-c4ccccc4)nn4ccccc34)ccc2=O)CCCC1)N1CCSCC1,180 to 182 °C
11,COc1cc(Nc2nccc(-c3ccc(N4CCNCC4)nc3)n2)cc(OC)c1,176 to 177 °C
12,Cc1c(CN2C(=O)c3ccccc3C2=O)cccc1C(F)(F)C(F)(F)c1ccccc1,135 to 137 °C
13,O=C1c2ccc(F)cc2C(=O)N1CC(=O)N1c2ccccc2N(Cc2ccccc2)C(=O)[C@H]2CCC[C@H]21 (relative stereo),235 to 236 °C
14,CC(C)(C)C1=CC(C(F)(F)F)=CCC1(O)C(C)(C)C (stereo not given),78 to 80 °C
15,c1ccc2c(c1)SSSSS2,56 to 58 °C
16,O=C(CC1CCCC1)c1ccc(Cn2ccc3ncnc-3c2)cc1,153 to 156 °C
17,O=C(O)CC1(c2ccccc2)Oc2ccccc2O1,152 to 153 °C
18,COC(=O)CCc1ccccc1CC1C2CCC(O2)C1c1nc(C(=O)CCCCCC2CCCCC2)co1 (stereo not given),170 to 171 °C
19,CCOP(=O)(OCC)C(CCc1cc(C)nc2c(C#N)c(C)nn12)P(=O)(OCC)OCC,49 to 50 °C
20,O=C1CCCCc2cc(Cl)c(Cl)cc21,> 250 °C
21,Cc1cc(C)c(P(C(C)(C)C)C(C)(C)C)c(C)c1,36 to 37 °C
22,CC(I)CC(F)(F)C(F)(F)C(F)(F)C(F)(F)CC(C)I (stereo not given),35 to 35.5 °C
23,CC(=Cc1ccc(-c2ccccc2)s1)c1ccccc1,115 to 125 °C
24,Cc1cn2cccc(N[C@@H]3c4ccccc4C[C@H]3O)c2n1 (relative stereo),188 to 190 °C
25,CC(c1ccc(-c2ccccc2)c(F)c1)c1csc(NC(=S)Nc2ccccc2)n1 (stereo not given),176 to 177 °C

# The next lines start with the values.
row,melting point,SMILES
1,224 to 226 °C,O=C1Nc2ccccc2C12COc1ccc(F)cc12 (stereo not given)
2,182 to 184 °C,CCCc1c2oc(C#N)cc(=O)c2cc2c(=O)cc(C(=O)OCC)oc12
3,112 to 113 °C,CCCCNC(=O)Cc1cc(=O)oc2cc(OCc3cccc(Cl)c3)ccc12
4,153 to 154 °C,CCOC(=O)c1cc2c(F)cc(F)cc2[nH]1
5,165 to 167 °C,NS(=O)(=O)Cc1csc(-c2ccc(Cl)c(Cl)c2)n1
6,212 to 215 °C,COc1cc(Nc2ncc(-c3ccccc3)o2)ccc1-c1cnco1
7,183 to 184 °C,Cc1nc(C)c(-c2ccnc(Nc3cccc(CN)c3)n2)s1
8,172 to 173 °C,COc1ccc(N)cc1-c1nc(C)c(-c2cccnc2)[nH]1
9,181 to 184 °C,CC(=O)Oc1ccccc1-c1ccc(=O)[nH]n1
10,215 °C,CC(=O)n1cc(-c2ccccc2)c(O)n1
11,78 to 79 °C,CC(C)(C)OC(=O)N1CCOc2ccccc21
12,98.8 to 99.8 °C,C=CCc1c(OC(C)=O)ccc2c(C)cc(=O)oc12
13,179 to 180 °C,O=c1[nH]c2cc(Cl)cc(OCCNCc3cccs3)c2[nH]1
14,89 to 90 °C,CCCc1c(OCCOCCOc2ccc3ccc(OCC(=O)OC)cc3c2C(C)=O)ccc(C(C)=O)c1O
15,177 °C,CCCC(=O)Cc1ccc(C(=O)Nc2ccc3cc(CN4CCN(C)CC4)cnc3c2C)cc1
16,99 to 102 °C,"COC(C)c1ccc(C(=O)O)cc1 (single isomer, unassigned; (+))"
17,119 to 121 °C,COC1C(N(C)S(C)(=O)=O)c2cc(OCc3ccccc3)ccc2OC1(C)C (stereo not given)
18,177 to 183 °C,C=C(C)c1ccccc1S(=O)(=O)NC(=O)Nc1nc(C)cc(C)n1
19,57 to 58 °C,COC(=O)CCc1conc1-c1ccc(Cl)c(F)c1
20,79 to 80 °C,CC1(C)c2cc(O)ccc2OC1CO (stereo not given)
21,48 °C,CC1CC(=Cc2ccccc2Cl)C(=O)O1 (stereo not given)
22,76 to 77 °C,O=C(O)CCCc1ccc(-c2ccc(F)cc2F)cc1
23,84 to 85 °C,COc1ccc(S(=O)(=O)c2ccnc(C)c2C)cc1
24,146 °C,CCOC(=O)CNc1nc(-c2ccccc2)c2cc(Cl)ccc2n1
25,240 to 243 °C,CC(=O)NC1CCC2=C(CC1)C(=O)C(=CC(=O)O)C=C2 (stereo not given)
26,162 to 164 °C,COc1cc2c(cc1OC)C1Cc3cc(OC)c(OC(C)=O)cc3CN1CC2 (stereo not given)
27,101 to 102 °C,CN1CC(CCCl)Oc2cc3ccccc3cc2C1=O (stereo not given)
28,113 to 114 °C,CC(=O)OCC1OC(n2cc(C)c(=S)[nH]c2=S)CC1F (stereo not given)

row,melting point,SMILES
1,96 to 97 °C,CCN(CC)C(=O)n1ccc(Sc2ccc(Cl)cc2Cl)n1
2,186 to 188 °C,CC1(C)CN2C(=O)c3ccccc3C(O)(c3ccccc3)C2=N1 (stereo not given)
3,146 to 148 °C,CC(C)(C)c1ccccc1N1CCN(C(=O)c2ncoc2-c2ccccc2)CC1
4,192 °C,CCOC(=O)N1CCC(=C2c3ccccc3CCn3c(CO)cnc32)CC1
5,145 to 147 °C,CCOC(=O)c1c(OC)c([N+](=O)[O-])cn1C
6,189 to 191 °C,Cc1nc(-c2ccc(C(F)(F)F)cc2)oc1COc1ccc(CC(=O)O)cc1Cl
7,128 to 130 °C,CCOC(=O)Cc1c([N+](=O)[O-])cc(OCc2ccccc2)c2ccccc12
8,186 to 188 °C,O=C1c2ccccc2Cc2c1ccc(Cl)c2O
9,108 to 110 °C,COC(=O)[C@@H]1CCCN1C(=O)c1ccc(OC)c(O)c1[N+](=O)[O-]
10,102 to 104 °C,O=C(OCC(O)CO)c1ccc(C=Cc2csc3ccccc23)s1 (stereo not given)
11,74 to 76 °C,CCNC(=O)n1nc(Oc2ncc(Cl)cc2Cl)cc1C
12,124 to 126 °C,COC(=O)c1ccc(C(Cc2cc(C)ccc2N2CCCCC2)C(N)=O)cc1 (stereo not given)
13,317 to 320 °C,N#Cc1ccc(Cn2c(=O)[nH]c3cc(Cl)cc(Cl)c3c2=O)cc1
14,181 to 183 °C,Cc1ccc(Oc2ccc(-c3nnc(N)o3)cc2)c(O)c1
15,218 to 219 °C,Cc1nc2c(c3c1[nH]c1ccccc13)C(=O)CC(C)C2 (stereo not given)
16,194 to 196 °C,CCOC(=O)c1cn(C2CC2)c2cc(N3C[C@@H](C)N[C@@H](C)C3)c(F)c(N)c2c1=O
17,151 to 153 °C,COc1ccc(Nc2nc(Cl)c3sccc3n2)c(C)c1
18,192 to 193 °C,CN1CC(=O)c2ccc3ccccc3c2S1(=O)=O
19,> 260 °C,COc1ccc2cc3[nH]cc(C#N)c(=O)c3cc2c1
20,189 to 190 °C,C=C(c1ccc(C(=O)O)cc1)C(O)(Cn1cncn1)c1ccc(F)cc1F (stereo not given)
21,233 to 234 °C,COc1c(CCc2ccc(NS(C)(=O)=O)cc2)cc(N2CCC(=O)NC2=O)cc1C(C)(C)C
22,89 to 91 °C,O=C1CCCN1c1ccc2c(c1)OCO2
23,89 to 93 °C,COc1ccc(CCc2ccncc2)c2c1OCC2C (stereo not given)
24,143 to 145 °C,Cc1nc(N2CCN(Cc3ccc(C(F)(F)F)o3)C2=O)sc1C(=O)NCc1ccccc1
25,89 to 91 °C,CN1CCC(c2c[nH]c3cc(NC(=N)c4cccs4)ccc23)C1 (stereo not given)
26,182 to 184 °C,Cc1ccc(C(=O)c2[nH]c3cc(Cl)ccc3c2CC(=O)O)cc1
27,178 to 180 °C,Cn1cc(C=O)cc1C(=O)O
